Data taken from PubChem BioAssay (NCI).
Where “and” joins values, the source holds several entries; their conditions need not be identical. Identical values can stand only once.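 Growth conditions: 96-well plates. Treatment: test compound, 48 hours, 5 concentrations. Analysis: linear interpolation between bracketing concentrations; unreached endpoints set to highest concentration. At the GI50, growth is halved. TGI denotes the concentration required for complete inhibition of growth.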

Tests used:
Assay in all cases: inhibition of tumour cell growth, NCI panel, 48 h
[1] = test system: 786-0 renal
[2] = test system: HCC-2998 colon
[3] = test system: HL-60(TB) leukemia
[4] = test system: KM12 colon
[5] = test system: MCF7 breast
[6] = test system: MOLT-4 leukemia
[7] = test system: SK-OV-3 ovarian
[8] = test system: SR leukemia
[9] = test system: SW-620 colon
[10] = test system: TK-10 renal

Structure (SMILES) | GI50 [1] | TGI [1] | GI50 [2] | GI50 [3] | TGI [3] | GI50 [4] | TGI [4] | GI50 [5] | TGI [5] | GI50 [6] | TGI [6] | GI50 [7] | GI50 [8] | TGI [8] | GI50 [9] | TGI [9] | GI50 [10] | TGI [10] | TGI [2] | TGI [7]
COc1cccc(C2C(C#N)=C(N)Oc3cc(OC)ccc32)c1 (stereo not drawn) | 55.6 nM | > 66.8 µM | 59.4 nM | 26.3 nM | 0.077 µM | 31.4 nM | 5.61 µM | 21.1 nM | > 72.4 µM | 59.8 nM | > 37.4 µM | 47.8 nM | 25.6 nM | > 33.8 µM | 35 nM | > 100 µM | 11.8 µM | 74.1 µM | – | –
CC12CCC(O)CC1CCC1C2CCC2(C)C(C3=CC(=O)OC3)CCC12 (stereo not drawn) | 22000 nM | 65.2 µM | > 100000 nM | > 100000 nM | > 100 µM | > 100000 nM | > 100 µM | > 100000 nM | > 100 µM | > 100000 nM | > 100 µM | 21800 nM | 375 nM | > 100 µM | > 100000 nM | > 100 µM | 19.6 µM | 66.4 µM | > 100 µM | > 61.5 µM
O=C1C(=O)c2c(nc3ncccn23)-c2ccccc21 | 304 nM | 0.766 µM | 408 nM | 247 nM | 0.64 µM | 678 nM | 1.9 µM | 179 nM | 0.406 µM | 257 nM | 0.711 µM | 1080 nM | 315 nM | – | 214 nM | 0.461 µM | 1.85 µM | 3.35 µM | 0.935 µM | 2.52 µM
CC(C)c1ccc(O)c(=O)cc1 | 14700 nM | > 100 µM | – | 2510 nM | > 24.5 µM | 5280 nM | > 100 µM | 5080 nM | – | 2160 nM | > 44.8 µM and 6.22 µM | – | 4180 nM | > 100 µM | 6150 nM | > 100 µM | 39.7 µM | > 100 µM | > 100 µM | > 100 µM
CCc1nc(N)nc(N)c1-c1ccc(Cl)c(N=NN(C)C)c1 | – | > 95.7 µM | – | – | > 52.9 µM | – | > 97.3 µM | – | > 81.6 µM | – | 73.5 µM | – | – | 44.8 µM | – | > 100 µM | – | > 100 µM | 62.9 µM | > 100 µM
Oc1ccc(SCc2ccc(NCc3ccccc3)cc2)cc1 | – | 26.8 µM | – | – | 68.9 µM | – | > 100 µM | – | > 100 µM | – | 39.7 µM | – | – | 47.6 µM | – | > 100 µM | – | > 100 µM | 94.7 µM | > 100 µM
Clc1ccc(-c2cn(-c3ccccc3)c(-c3ccccc3)n2)c(Cl)c1 | 1140 nM | 2.56 µM | – | 9740 nM | > 50 µM | 932 nM | 2.02 µM | 1560 nM | > 12.3 µM | > 20500 nM | > 50 µM | 5150 nM | 1050 nM | 4.01 µM | 1010 nM | 2.07 µM | 1.14 µM | 2.17 µM | > 25.5 µM | > 35.7 µM
C=C1C(=O)O[C@H]2[C@H]1CC/C(COC(=O)C(=O)c1cn(C)c3ccc(OC)cc13)=C\CC[C@@]1(C)O[C@@H]21 | 3840 nM | 7.56 µM | 5140 nM | 3030 nM | 8.89 µM | 6410 nM | 13.3 µM | 2800 nM | 16.4 µM | 3650 nM | 16 µM | 13600 nM | 2340 nM | 42.5 µM | 3530 nM | 14.5 µM | 4.79 µM | 13.2 µM | 9.72 µM | 29.3 µM
COc1cccc2c1C(=O)c1c(O)c3c(c(O)c1C2=O)C[C@@](O)(/C(C)=N\O)C[C@@H]3OC1CC(N)C(O)C(C)O1 (stereo partly drawn) | – | 11.1 µM | – | – | 2.14 µM | – | 15.8 µM | – | 9.97 µM | – | 1.55 µM | – | – | 2.97 µM | – | 10.3 µM | – | 37.2 µM | 3.04 µM | 11.7 µM
CCCCc1nc2cc(/C=C/C(=O)NO)ccc2n1CCN(CC)CC | 460 nM | 11.5 µM | 242 nM | 441 nM | > 100 µM | 356 nM | 5.73 µM | 202 nM | > 20.3 µM | 384 nM | > 88.8 µM | 241 nM | 605 nM | > 100 µM | 228 nM | 3.32 µM | 0.116 µM | 0.598 µM | 1.23 µM | 0.88 µM
Nc1nc(Nc2ccc3c(c2)CCC(N2CCCC2)CC3)nn1-c1cc2c(nn1)-c1ccccc1CCC2 (stereo not drawn) | 1100 nM | 2.49 µM | 1550 nM | 1010 nM | 2.75 µM | 1020 nM | 2.73 µM | 1350 nM | 2.79 µM | 681 nM | 2.86 µM | 895 nM | 420 nM | 2.37 µM | 1310 nM | 3.17 µM | 1.14 µM | 2.61 µM | 2.97 µM | 2.22 µM
NCC(=O)CCC(=O)O | > 100000 nM | > 100 µM | > 100000 nM | > 100000 nM | > 100 µM | > 100000 nM | > 100 µM | > 100000 nM | > 100 µM | > 100000 nM | > 100 µM | > 100000 nM | > 100000 nM | > 100 µM | > 100000 nM | > 100 µM | > 100 µM | > 100 µM | > 100 µM | > 100 µM
C=C1C(=O)O[C@H]2[C@H]1CC(=O)/C(C)=C\CC[C@@]1(C)O[C@@H]21 | 1.06 µg/mL | 4.51 µg/mL | 3.47 µg/mL | 0.264 µg/mL | 4.19 µg/mL | 4.77 µg/mL | 8.79 µg/mL | 1.77 µg/mL | 10.1 µg/mL | 1.12 µg/mL | 4.7 µg/mL | 7.86 µg/mL | 0.759 µg/mL | 9.5 µg/mL | 1.06 µg/mL | 6.15 µg/mL | 1.93 µg/mL | 5.38 µg/mL | 7.4 µg/mL | 17.4 µg/mL
O=C(CC(=O)c1ccccc1NC1=Cc2ccccc2C(=O)C1=O)C(=O)NC1=C(Cl)C(=O)c2ccccc2C1=O | – | 10.7 µM | – | – | 3.42 µM | – | 15.6 µM | – | 7.32 µM | – | 18 µM | – | – | 14.1 µM | – | 7.98 µM | – | 43.6 µM | 26.8 µM | > 83.8 µM
